Results: PubChem BioAssay AID248 (DTP/NCI, 2004)
“And” between values parts separate entries of the source, which are not always exact repeats. Identical values can stand only once. Toxic doses and inconclusive results are not listed. Cut-off read from the data, not from the text of the source: active = T/C of 150% or more; inactive = T/C below 125%.

Tested on: L1210 leukemia ip in BDF1 mice, survival T/C
Experiment: NCI In Vivo Anticancer Drug Screen. Data for tumor model L1210 Leukemia (intraperitoneal) in B6D2F1 (BDF1) mice
Conditions: endpoint: mean survival time, higher = longer survival
In short: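 Ratio derived from survival: compound-dosed mice over vehicle-dosed mice, all bearing a transplantable tumor.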

[1] = dose: 100.0 mg/kg/injection, schedule: Q01DX009 (ip), vehicle: saline
[2] = dose: 200.0 mg/kg/injection, schedule: Q01DX009 (ip), vehicle: saline
[3] = dose: 400.0 mg/kg/injection, schedule: Q01DX009 (ip), vehicle: saline
[4] = dose: 100.0 mg/kg/injection, schedule: Q01DX009 (ip), vehicle: saline with Tween-80
[5] = dose: 100.0 mg/kg/injection, schedule: Q04DX003 (ip), vehicle: saline with Tween-80
[6] = dose: 200.0 mg/kg/injection, schedule: Q01DX009 (ip), vehicle: saline with Tween-80
[7] = dose: 200.0 mg/kg/injection, schedule: Q04DX003 (ip), vehicle: saline with Tween-80
[8] = dose: 400.0 mg/kg/injection, schedule: Q04DX003 (ip), vehicle: saline with Tween-80
[9] = dose: 100.0 mg/kg/injection, schedule: Q04DX003 (ip), vehicle: Klucel (hydroxypropylcellulose) (HPC)
[10] = dose: 200.0 mg/kg/injection, schedule: Q04DX003 (ip), vehicle: Klucel (hydroxypropylcellulose) (HPC)
[11] = dose: 400.0 mg/kg/injection, schedule: Q04DX003 (ip), vehicle: Klucel (hydroxypropylcellulose) (HPC)
[12] = dose: 25.0 mg/kg/injection, schedule: Q04DX002 (ip), vehicle: saline with Tween-80
[13] = dose: 50.0 mg/kg/injection, schedule: Q04DX002 (ip), vehicle: saline with Tween-80
[14] = dose: 100.0 mg/kg/injection, schedule: Q04DX002 (ip), vehicle: saline with Tween-80
[15] = dose: 100.0 mg/kg/injection, schedule: Q01DX001 (ip), vehicle: saline
[16] = dose: 200.0 mg/kg/injection, schedule: Q01DX001 (ip), vehicle: saline
[17] = dose: 400.0 mg/kg/injection, schedule: Q01DX001 (ip), vehicle: saline
[18] = dose: 100.0 mg/kg/injection, schedule: Q01DX001 (ip), vehicle: saline with Tween-80
[19] = dose: 200.0 mg/kg/injection, schedule: Q01DX001 (ip), vehicle: saline with Tween-80
[20] = dose: 200.0 mg/kg/injection, schedule: Q04DX002 (ip), vehicle: saline with Tween-80
[21] = dose: 400.0 mg/kg/injection, schedule: Q01DX001 (ip), vehicle: saline with Tween-80
[22] = dose: 400.0 mg/kg/injection, schedule: Q04DX002 (ip), vehicle: saline with Tween-80

Measured: T/C

COC(=O)C1(C)CCc2c(ccc3ccccc23)C1=O (stereo not given)
inactive: [1] 100 % of control | dose: 100.0 mg/kg/injection, schedule: Q04DX003 (ip), vehicle: saline 97 % of control | [2] 102 % of control | dose: 200.0 mg/kg/injection, schedule: Q04DX003 (ip), vehicle: saline 94 % of control | [3] 99 % of control | dose: 400.0 mg/kg/injection, schedule: Q04DX003 (ip), vehicle: saline 102 % of control

NC1=CCNN1
inactive: dose: 75.0 mg/kg/injection, schedule: Q01DX001 (ip), vehicle: saline 106 % of control | dose: 150.0 mg/kg/injection, schedule: Q01DX001 (ip), vehicle: saline 93 % of control | dose: 300.0 mg/kg/injection, schedule: Q01DX001 (ip), vehicle: saline 94 % of control

COc1cccc2sc3ccccc3c(=O)c12
inactive: [4] 102 % of control | [5] 101 % of control | [6] 86 % of control | [7] 102 % of control | dose: 400.0 mg/kg/injection, schedule: Q01DX009 (ip), vehicle: saline with Tween-80 87 % of control | [8] 87 % of control

O=C(Sc1ccccc1)C1OC1c1ccccc1 (stereo not given)
inactive: dose: 100.0 mg/kg/injection, schedule: Q04DX003 (ip), vehicle: alcohol 98 % of control | dose: 200.0 mg/kg/injection, schedule: Q04DX003 (ip), vehicle: alcohol 92 % of control | dose: 400.0 mg/kg/injection, schedule: Q04DX003 (ip), vehicle: alcohol 86 % of control

Cc1ccc(S(=O)(=O)N(C)c2ccccc2C(=O)O)cc1
inactive: [9] 104 % of control | [10] 97 % of control | [11] 95 % of control

CC(=O)OC1CCC2(C)C3=CCC4(C)C(C(C)/C=C\C(C)C(C)C)CCC4C34C=CC2(C1)C1C(=O)OC(=O)C14 (stereo not given)
inactive: [12] 98 % of control | [13] 90 % of control | [14] 94 % of control

Cc1ccc(NC(=O)CS)cc1
inactive: [5] 100 % of control | [7] 93 % of control

CCOC(=O)C1CC(=O)C(C(=O)OCC)CC1=O (stereo not given)
inactive: [15] 101 % of control | [16] 95 % of control | [17] 95 % of control

O=C(CCN1CC1)Nc1ccc(Cc2ccc(NC(=O)CCN3CC3)cc2)cc1
inactive: dose: 20.0 mg/kg/injection, schedule: Q04DX003 (ip), vehicle: Klucel (hydroxypropylcellulose) (HPC) 101 % of control | dose: 40.0 mg/kg/injection, schedule: Q04DX003 (ip), vehicle: Klucel (hydroxypropylcellulose) (HPC) 117 % of control | dose: 80.0 mg/kg/injection, schedule: Q04DX003 (ip), vehicle: Klucel (hydroxypropylcellulose) (HPC) 106 % of control

COc1ccc(Cl)cc1NC(=O)Oc1ccccc1C(N)=O
inactive: dose: 25.0 mg/kg/injection, schedule: Q01DX009 (ip), vehicle: saline 106 % of control and 113 % of control | [12] 104 % of control and 112 % of control | dose: 50.0 mg/kg/injection, schedule: Q01DX009 (ip), vehicle: saline 102 % of control | [13] 102 % of control and 91 % of control | [18] 107 % of control | [4] 86 % of control | [1] 98 % of control | [5] 104 % of control | [19] 108 % of control | [20] 110 % of control

CCOC(=O)c1ccc(NCc2nnc3nc(N)nc(N)c3n2)cc1
inactive: dose: 50.0 mg/kg/injection, schedule: Q01DX001 (ip), vehicle: saline with Tween-80 103 % of control | [18] 98 % of control | [19] 97 % of control

O=C(O)/C=C/C(=O)NCCC(=O)O
inactive: [1] 114 % of control | [2] 115 % of control | [3] 109 % of control

N#Cc1ccc(/C=N/N2CCN(/N=C/c3ccc(C#N)cc3)CC2)cc1
inactive: dose: 100.0 mg/kg/injection, schedule: Q01DX001 (ip), vehicle: carboxymethylcellulose (CMC) 96 % of control | dose: 200.0 mg/kg/injection, schedule: Q01DX001 (ip), vehicle: carboxymethylcellulose (CMC) 91 % of control | dose: 400.0 mg/kg/injection, schedule: Q01DX001 (ip), vehicle: carboxymethylcellulose (CMC) 94 % of control

Nc1ccc2ncsc2c1
inactive: [4] 114 % of control | [5] 102 % of control | [6] 88 % of control | [7] 95 % of control | [8] 98 % of control

O=C(Nc1ccsn1)c1ccc(Cl)cc1Cl
inactive: dose: 50.0 mg/kg/injection, schedule: Q01DX009 (ip), vehicle: saline with Tween-80 111 % of control | [4] 91 % of control | [6] 91 % of control

O=C1C=C(c2ccccc2)C(O)(c2ccccc2)O1 (stereo not given)
inactive: [18] 106 % of control | [19] 103 % of control | [21] 101 % of control

COC(=O)C1(C)CCCC2(C)C3CCC(C(C)C)C(CO)C3C(CO)CC12 (stereo not given)
inactive: dose: 100.0 mg/kg/injection, schedule: Q04DX003 (ip), vehicle: other 107 % of control | dose: 200.0 mg/kg/injection, schedule: Q04DX003 (ip), vehicle: other 104 % of control | dose: 400.0 mg/kg/injection, schedule: Q04DX003 (ip), vehicle: other 107 % of control

CNC(=O)C(C)(C)C
inactive: [18] 100 % of control | [19] 103 % of control | [21] 100 % of control

CCCCNCC#N
inactive: dose: 50.0 mg/kg/injection, schedule: Q01DX001 (ip), vehicle: saline 110 % of control

CCCCCCC(c1ccccc1)c1ccccc1
inactive: [15] 100 % of control | [16] 97 % of control | [17] 100 % of control

NC(=S)NNC(=O)c1ccncc1
inactive: [15] 96 % of control | [16] 96 % of control | [17] 91 % of control

COc1ccc(NC(=S)/C(=C(/[O-])c2ccc(C)cc2)[n+]2ccccc2)cc1
inactive: [18] 92 % of control | [14] 95 % of control and 96 % of control | [5] 105 % of control and 108 % of control and 90 % of control | [19] 102 % of control | [20] 97 % of control and 110 % of control | [7] 93 % of control and 98 % of control and 105 % of control | [21] 94 % of control | [22] 98 % of control and 104 % of control | [8] 93 % of control and 95 % of control and 91 % of control

O=C(O)c1ccccc1Cl
inactive: [9] 103 % of control | [10] 108 % of control | [11] 102 % of control

Cc1cc(OC(=O)Nc2ccccc2C(F)(F)F)cc(C)c1Cl
inactive: [4] 109 % of control | [14] 91 % of control | [6] 102 % of control | [20] 95 % of control | [22] 98 % of control

COc1cc(C=Nc2ccccc2)cc(OC)c1OC
inactive: [9] 104 % of control | [10] 102 % of control | [11] 95 % of control

CCOc1ccc(NC(=O)Nc2ccccc2Cl)cc1
inactive: dose: 6.0 mg/kg/injection, schedule: Q01DX009 (ip), vehicle: Klucel (hydroxypropylcellulose) (HPC) 93 % of control | dose: 12.0 mg/kg/injection, schedule: Q01DX009 (ip), vehicle: Klucel (hydroxypropylcellulose) (HPC) 88 % of control | dose: 25.0 mg/kg/injection, schedule: Q01DX009 (ip), vehicle: Klucel (hydroxypropylcellulose) (HPC) 97 % of control | dose: 25.0 mg/kg/injection, schedule: Q01DX009 (ip), vehicle: gum acacia 89 % of control | dose: 200.0 mg/kg/injection, schedule: Q01DX009 (ip), vehicle: gum acacia 91 % of control | dose: 200.0 mg/kg/injection, schedule: Q04DX003 (ip), vehicle: gum acacia 92 % of control | dose: 400.0 mg/kg/injection, schedule: Q04DX003 (ip), vehicle: gum acacia 90 % of control

Cc1cc(=O)[nH]c2c(Cl)ccc(C(F)(F)F)c12
inactive: dose: 100.0 mg/kg/injection, schedule: Q01DX001 (ip), vehicle: other 94 % of control | dose: 200.0 mg/kg/injection, schedule: Q01DX001 (ip), vehicle: other 94 % of control | dose: 400.0 mg/kg/injection, schedule: Q01DX001 (ip), vehicle: other 114 % of control

CC[Si](C)(C)N1CC1
inactive: dose: 12.5 mg/kg/injection, schedule: Q01DX001 (ip), vehicle: carboxymethylcellulose (CMC) 106 % of control | dose: 25.0 mg/kg/injection, schedule: Q01DX001 (ip), vehicle: carboxymethylcellulose (CMC) 101 % of control | dose: 50.0 mg/kg/injection, schedule: Q04DX003 (ip), vehicle: carboxymethylcellulose (CMC) 94 % of control | dose: 100.0 mg/kg/injection, schedule: Q04DX003 (ip), vehicle: carboxymethylcellulose (CMC) 101 % of control | dose: 200.0 mg/kg/injection, schedule: Q04DX003 (ip), vehicle: carboxymethylcellulose (CMC) 101 % of control
